Laboratory results from the CheMixHub viscosity set.
Where “and” joins values, the source holds several entries; their conditions need not be identical. Equal values may be shown once. ± gives the uncertainty stated by the source.

BrCCBr
viscosity
Conditions	298.15 K	308.15 K	323.15 K
101 kPa	1.613 ± 0.021 mPa·s	–	–
101.33 kPa	1.616 ± 0.019 mPa·s and 1.564 ± 0.016 mPa·s	1.384 ± 0.016 mPa·s	1.107 ± 0.011 mPa·s

Brc1ccccc1
Conditions	viscosity
293.15 K, 101 kPa	1.125 ± 0.019 mPa·s
293.15 K, 101.33 kPa	1.142 ± 0.028 mPa·s
298.15 K, 101 kPa	1.07 ± 0.0098 mPa·s and 1.068 ± 0.009 mPa·s
303.15 K, 101.33 kPa	0.985 ± 0.007 mPa·s
313.15 K, 101.33 kPa	0.895 ± 0.007 mPa·s
318 K, 101.3 kPa	0.8536 ± 0.031 mPa·s
318 K, 101.33 kPa	0.8536 ± 0.039 mPa·s
318.15 K, 101 kPa	0.7925 ± 0.021 mPa·s and 0.836 ± 0.023 mPa·s
323.15 K, 101 kPa	0.784 ± 0.021 mPa·s

C#Cc1ccccc1
Conditions	viscosity [mPa·s]
298.15 K, 101 kPa	0.8829 ± 0.011

C1=C[C@H]2[C@@H](C1)[C@H]1C=C[C@@H]2C1
101.2 kPa
Conditions	viscosity [mPa·s]
293.15 K	4.463 ± 0.23
298.15 K	3.918 ± 0.2
303.15 K	3.456 ± 0.18
308.15 K	3.126 ± 0.16
313.15 K	2.81 ± 0.14
318.15 K	2.539 ± 0.13

C1COCCO1
Conditions	viscosity
293.15 K, 100 kPa	1.286 ± 0.13 mPa·s and 1.221 ± 0.24 mPa·s
293.15 K, 101 kPa	1.271 ± 0.012 mPa·s
293.15 K, 101.3 kPa	1.297 ± 0.017 mPa·s
295.1 K, 101.32 kPa	1.26 ± 0.0099 mPa·s
298.15 K, 100 kPa	1.122 ± 0.23 mPa·s
298.15 K, 101 kPa	1.155 ± 0.011 mPa·s
298.15 K, 101.33 kPa	1.321 ± 0.009 mPa·s and 1.149 ± 0.02 mPa·s
301.15 K, 101.32 kPa	1.116 ± 0.0088 mPa·s
302.15 K, 101 kPa	1.099 ± 0.0087 mPa·s
303.15 K, 100 kPa	1.034 ± 0.21 mPa·s
304.15 K, 101.32 kPa	1.046 ± 0.0083 mPa·s
306.15 K, 101 kPa	1.029 ± 0.0082 mPa·s
307.15 K, 101.32 kPa	0.9913 ± 0.0079 mPa·s
308.15 K, 100 kPa	0.999 ± 0.04 mPa·s
308.15 K, 101.33 kPa	1 ± 0.007 mPa·s and 0.999 ± 0.025 mPa·s and 0.969 ± 0.016 mPa·s
309.15 K, 101 kPa	0.9815 ± 0.0078 mPa·s
310.15 K, 101.32 kPa	0.9402 ± 0.0075 mPa·s
311.15 K, 101 kPa	0.9497 ± 0.022 mPa·s
313.1 K, 101 kPa	0.929 ± 0.015 mPa·s and 0.929 ± 0.016 mPa·s
313.15 K, 101.32 kPa	0.939 ± 0.024 mPa·s and 0.8914 ± 0.0072 mPa·s
313.15 K, 101.33 kPa	0.9376 ± 0.059 mPa·s
316.15 K, 101 kPa	0.8859 ± 0.021 mPa·s
318.15 K, 101.33 kPa	0.8714 ± 0.056 mPa·s and 0.901 ± 0.015 mPa·s
320.15 K, 101 kPa	0.8276 ± 0.019 mPa·s
323.1 K, 101 kPa	0.809 ± 0.013 mPa·s and 0.809 ± 0.014 mPa·s
323.15 K, 100 kPa	0.814 ± 0.082 mPa·s
323.15 K, 101 kPa	0.8147 ± 0.0082 mPa·s and 0.819 ± 0.0082 mPa·s
323.15 K, 101.33 kPa	0.8121 ± 0.053 mPa·s

CC(=O)OCC(COC(C)=O)OC(C)=O
101.33 kPa
Conditions	viscosity [mPa·s]
298 K	16.31 ± 0.24
303 K	12.62 ± 0.17
308 K	10.03 ± 0.13
313 K	8.12 ± 0.11

CC(=O)[O-].CCCC[n+]1ccn(C)c1
viscosity
Conditions	298.15 K	303.15 K	313.15 K	314.3 K	323.15 K
100 kPa	594.8 ± 50 mPa·s	399.6 ± 29 mPa·s	200.1 ± 11 mPa·s	–	111.7 ± 4.5 mPa·s
101 kPa	441 ± 48 mPa·s	–	154.5 ± 17 mPa·s	125.7 ± 14 mPa·s and 138.3 ± 14 mPa·s	–

CC(C)N
Conditions	viscosity [mPa·s]
298.15 K, 101 kPa	0.278 ± 0.002

CC(C)[N+](=O)[O-]
Conditions	viscosity [mPa·s]
293.15 K, 101.33 kPa	0.771 ± 0.008

CC(F)(F)Cl
101 kPa
Conditions	viscosity [mPa·s]
293.15 K	0.2489 ± 0.0099
293.35 K	0.2432 ± 0.0087
293.45 K	0.2381 ± 0.0097
313.15 K	0.2004 ± 0.0054
313.25 K	0.2015 ± 0.0055
313.35 K	0.2002 ± 0.0054

CCCC#N
Conditions	viscosity [mPa·s]
298.15 K, 101 kPa	0.502 ± 0.04

CCCCn1cc[n+](C)c1.O=S(=O)([N-]S(=O)(=O)C(F)(F)F)C(F)(F)F
Conditions	viscosity
293.15 K, 100 kPa	61.47 ± 2.7 mPa·s
293.15 K, 101 kPa	64.6 ± 1.3 mPa·s and 62.91 ± 2.6 mPa·s and 65.11 ± 0.61 mPa·s
293.15 K, 101.3 kPa	63.1 ± 1.3 mPa·s
293.3 K, 100 kPa	62.66 ± 4 mPa·s
293.61 K, 100 kPa	61.82 ± 3.9 mPa·s
293.91 K, 100 kPa	60.98 ± 3.8 mPa·s
294.21 K, 100 kPa	60.17 ± 3.8 mPa·s
294.52 K, 100 kPa	59.36 ± 3.7 mPa·s
294.82 K, 100 kPa	58.58 ± 3.6 mPa·s
295.12 K, 100 kPa	57.8 ± 3.6 mPa·s
295.42 K, 100 kPa	57.04 ± 3.5 mPa·s
295.73 K, 100 kPa	56.29 ± 3.4 mPa·s
296.03 K, 100 kPa	55.56 ± 3.4 mPa·s
296.33 K, 100 kPa	54.84 ± 3.3 mPa·s
296.64 K, 100 kPa	54.13 ± 3.2 mPa·s
296.94 K, 100 kPa	53.43 ± 3.2 mPa·s
297.24 K, 100 kPa	52.75 ± 3.1 mPa·s
297.55 K, 100 kPa	52.07 ± 3.1 mPa·s
297.85 K, 100 kPa	51.41 ± 3 mPa·s
298 K, 100 kPa	49.74 ± 1.3 mPa·s
298 K, 101 kPa	50.4 ± 1.9 mPa·s
298.15 K, 101 kPa	50.29 ± 2.1 mPa·s and 51.73 ± 0.46 mPa·s and 45.3 ± 1.1 mPa·s
298.15 K, 101.3 kPa	50.53 ± 1 mPa·s
298.45 K, 100 kPa	50.12 ± 2.9 mPa·s
298.76 K, 100 kPa	49.49 ± 3.1 mPa·s
299.06 K, 100 kPa	48.87 ± 3 mPa·s
299.36 K, 100 kPa	48.26 ± 3 mPa·s
299.67 K, 100 kPa	47.66 ± 2.9 mPa·s
299.97 K, 100 kPa	47.08 ± 2.9 mPa·s
300.27 K, 100 kPa	46.5 ± 2.9 mPa·s
300.58 K, 100 kPa	45.93 ± 2.8 mPa·s
300.88 K, 100 kPa	45.37 ± 2.8 mPa·s
301.18 K, 100 kPa	44.82 ± 2.8 mPa·s
301.48 K, 100 kPa	44.27 ± 2.7 mPa·s
301.79 K, 100 kPa	43.74 ± 2.7 mPa·s
302.09 K, 100 kPa	43.22 ± 2.6 mPa·s
302.39 K, 100 kPa	42.7 ± 2.6 mPa·s
302.7 K, 100 kPa	42.19 ± 2.6 mPa·s
303 K, 100 kPa	41.69 ± 2.5 mPa·s
303.15 K, 100 kPa	40.54 ± 0.51 mPa·s and 39.95 ± 1.8 mPa·s
303.15 K, 101 kPa	40.77 ± 1.7 mPa·s and 41.8 ± 0.39 mPa·s
303.61 K, 100 kPa	40.71 ± 2.5 mPa·s
303.91 K, 100 kPa	40.23 ± 2.4 mPa·s
304.21 K, 100 kPa	39.76 ± 2.4 mPa·s
304.52 K, 100 kPa	39.3 ± 2.4 mPa·s
304.82 K, 100 kPa	38.85 ± 2.3 mPa·s
305.12 K, 100 kPa	38.4 ± 2.3 mPa·s
305.42 K, 100 kPa	37.96 ± 2.3 mPa·s
305.73 K, 100 kPa	37.52 ± 2.2 mPa·s
306.03 K, 100 kPa	37.09 ± 2.2 mPa·s
306.33 K, 100 kPa	36.67 ± 2.2 mPa·s
306.64 K, 100 kPa	36.25 ± 2.2 mPa·s
306.94 K, 100 kPa	35.85 ± 2.1 mPa·s
307.24 K, 100 kPa	35.44 ± 2.1 mPa·s
307.55 K, 100 kPa	35.04 ± 2.1 mPa·s
307.85 K, 100 kPa	34.65 ± 2.1 mPa·s
308.15 K, 101 kPa	34.3 ± 0.32 mPa·s
308.15 K, 101.3 kPa	33.95 ± 0.71 mPa·s
308.76 K, 100 kPa	33.51 ± 2 mPa·s
309.06 K, 100 kPa	33.14 ± 2 mPa·s
309.36 K, 100 kPa	32.78 ± 1.9 mPa·s
309.67 K, 100 kPa	32.42 ± 1.9 mPa·s
309.97 K, 100 kPa	32.07 ± 1.9 mPa·s
310.27 K, 100 kPa	31.72 ± 1.9 mPa·s
310.58 K, 100 kPa	31.38 ± 1.8 mPa·s
310.88 K, 100 kPa	31.04 ± 1.8 mPa·s
311.18 K, 100 kPa	30.71 ± 1.8 mPa·s
311.48 K, 100 kPa	30.38 ± 1.8 mPa·s
311.79 K, 100 kPa	30.05 ± 1.8 mPa·s
312.09 K, 100 kPa	29.73 ± 1.7 mPa·s
312.39 K, 100 kPa	29.42 ± 1.7 mPa·s
312.7 K, 100 kPa	29.11 ± 1.7 mPa·s
313 K, 100 kPa	28.8 ± 1.7 mPa·s
313.15 K, 100 kPa	28 ± 0.36 mPa·s
313.15 K, 101 kPa	28.06 ± 1.2 mPa·s
313.15 K, 101.3 kPa	28.39 ± 0.59 mPa·s
313.2 K, 101.33 kPa	27.26 ± 2.9 mPa·s
313.61 K, 100 kPa	28.2 ± 1.6 mPa·s
313.91 K, 100 kPa	27.91 ± 1.6 mPa·s
314.21 K, 100 kPa	27.62 ± 1.6 mPa·s
314.52 K, 100 kPa	27.33 ± 1.6 mPa·s
314.82 K, 100 kPa	27.05 ± 1.6 mPa·s
315.12 K, 100 kPa	26.77 ± 1.6 mPa·s
315.42 K, 100 kPa	26.49 ± 1.5 mPa·s
315.73 K, 100 kPa	26.22 ± 1.5 mPa·s
316.03 K, 100 kPa	25.95 ± 1.5 mPa·s
316.33 K, 100 kPa	25.69 ± 1.5 mPa·s
316.64 K, 100 kPa	25.43 ± 1.5 mPa·s
316.94 K, 100 kPa	25.17 ± 1.4 mPa·s
317.24 K, 100 kPa	24.92 ± 1.4 mPa·s
317.55 K, 100 kPa	24.67 ± 1.4 mPa·s
318.15 K, 100 kPa	23.75 ± 0.31 mPa·s and 24.18 ± 1.4 mPa·s
318.76 K, 100 kPa	23.7 ± 1.4 mPa·s
319.06 K, 100 kPa	23.47 ± 1.3 mPa·s
319.36 K, 100 kPa	23.23 ± 1.3 mPa·s
319.67 K, 100 kPa	23 ± 1.3 mPa·s
319.97 K, 100 kPa	22.78 ± 1.3 mPa·s
320.27 K, 100 kPa	22.56 ± 1.3 mPa·s
320.58 K, 100 kPa	22.34 ± 1.3 mPa·s
320.88 K, 100 kPa	22.12 ± 1.2 mPa·s
321.18 K, 100 kPa	21.9 ± 1.2 mPa·s
321.48 K, 100 kPa	21.69 ± 1.2 mPa·s
321.79 K, 100 kPa	21.48 ± 1.2 mPa·s
322.09 K, 100 kPa	21.28 ± 1.2 mPa·s
322.39 K, 100 kPa	21.07 ± 1.2 mPa·s
